Measurements reported in EP0532097A1, “Piperazinyl(sulfon)amide derivatives of camphor as oxytocin antagonists” (MERCK & CO. INC., priority 1991, dated 1993).

Biological target: T1, uterine OT receptors (Rattus norvegicus, UniProt P70536)
T1 construct: using a crude membrane preparation of uteri; from tissue; host or cells: uterus of DES-treated rats, crude membrane preparation
T1 sequence (P70536 1-388): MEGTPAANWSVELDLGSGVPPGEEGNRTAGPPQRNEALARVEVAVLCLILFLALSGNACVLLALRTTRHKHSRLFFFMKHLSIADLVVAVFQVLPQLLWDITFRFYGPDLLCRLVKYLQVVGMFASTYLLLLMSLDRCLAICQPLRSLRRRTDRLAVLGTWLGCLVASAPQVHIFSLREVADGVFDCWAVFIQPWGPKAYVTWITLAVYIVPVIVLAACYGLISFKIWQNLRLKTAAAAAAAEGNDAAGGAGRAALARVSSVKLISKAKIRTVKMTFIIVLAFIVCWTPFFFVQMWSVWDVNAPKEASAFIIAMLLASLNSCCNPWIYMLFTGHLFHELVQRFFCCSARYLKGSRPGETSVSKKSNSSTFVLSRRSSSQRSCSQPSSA
Assay: [³H]Oxytocin radioligand binding assay, crude membrane preparation of uteri from DES-treated rats
Details: for inhibition at 1 µM: read-out: inhibition at 1,000 nM; for inhibition at 0.1 µM: read-out: inhibition at 100 nM; for IC50: competition with 1 nM [³H]OT, 60 minutes, 22°C, concentration that inhibits 50% of OT, read-out: IC50
Experimental: The high affinity binding of [³H] Oxytocin (OT)([tyrosyl, 3,5-[³H]OT; 30-60 Ci/mmol; New England Nuclear. Boston, MA) to uterine OT receptors was based on an assay (Fuchs, A-R; Fuchs, F; Soloff, MS. 1985 J. Clin. Endocrinol. Metab. 60:37) using a crude membrane preparation of uteri taken from diethylstilbestrol dipropionate (DES)-treated (0.3 mg/kg, ip; 18-24) rats. Competition studies were conducted at equilibrium (60 minutes; 22°C) using 1 nM[³H]OT in the following assay buffer: 50 mM Tris-HCl, 5 mM MgCl₂, and 0.1% BSA, pH 7.4. Nonspecific binding (10% of the total binding) was determined using 1 mM unlabeled OT and the binding reaction was terminated by filtration through glass fiber filters using a cell harvester (model 7019, Skatron, Inc., Sterling, VA). IC₅₀ (the concentration of tested compound that inhibits 50% of OT) was reported, unless otherwise noted.

inhibition at 1 µM [%]	IC50 [nM]	Compound	also measured
37		Cc1ccccc1N1CCN(S(=O)(=O)C[C@]23CC[C@H](C[C@H]2O)C3(C)C)C(C)C1 (stereo partly drawn) [Example 32, 1-((7,7-Dimethyl-2-exo-hydroxy-bicyclo(2.2.1)heptan-1-yl)methane-sulfonyl)-4-(2-methylphenyl)-2-methyl-piperazine]	
	9.2	Cc1ccccc1N1CCN(S(=O)(=O)C[C@]23CC[C@H](C[C@@H]2N(C)C(=O)[C@H](CCS(C)(=O)=O)N(C)C)C3(C)C)CC1 [Example 42, 1-((7,7-Dimethyl-2-endo-methyl(2s-dimethylamino-4-(methylsulfonyl)-butanoyl)amino-bicyclo(2.2.1)heptan-1-yl)methanesulfonyl)-4-(2-methylphenyl)-piperazine]	
	5.4	Cc1ccccc1N1CCN(S(=O)(=O)C[C@]23CC[C@H](C[C@@H]2NC(=O)[C@H](CCS(C)(=O)=O)N(C)C)C3(C)C)CC1 [Example 38, 1-((7,7-Dimethyl-2-endo-(2s-(dimethylamino)-4-(methylsulfonyl)butyramido)-bicyclo(2.2.1)heptan-1-yl)methanesulfonyl)-4-(2-methyl-phenyl)piperazine]	
	7.7	Cc1ccccc1N1CCN(S(=O)(=O)C[C@]23CC[C@H](C[C@@H]2NC(=O)[C@@H](N)CCS(C)(=O)=O)C3(C)C)CC1 [Example 36, 1-((7,7-Dimethyl-2-endo-(2S-amino-4-(methylsulfonyl)-butyramido)-bicyclo(2.2.1)heptan-1-yl)methanesulfonyl)-4-(2-methylphenyl)piperazine]	

Continued, compound first:

Compound	inhibition at 1 µM [%]	IC50 [nM]	also measured
1-((7,7-Dimethyl-2-(3-acetamido-3-carboxy)propylidine-bicyclo(2.2.1)-heptan-1-yl)methanesulfonyl)-4-(2-methylphenyl)piperazine [Example 29]			inhibition at 1,000 nM (at 1,000 nM, 1 µM): 78% inhibition at 1,000 nM
Cc1ccccc1N1CCN(S(=O)(=O)CC23CCC(CC2=O)C3(C)C)CC1=O (stereo not shown) [Example 30, 1-((7,7-Dimethyl-2-oxo-bicyclo(2.2.1)heptan-1-yl)methanesulfonyl)-4-(2-methylphenyl)-3-piperazinone]			inhibition at 10 µM (read-out: inhibition at 10,000 nM): 16%
COC(=O)CCNCC(C)C1(O)CC2CCC1(CS(=O)(=O)N1CCN(c3ccccc3C)CC1)C2(C)C (stereo not drawn) [Example 10, 1-((7,7-Dimethyl-2-exo-hydroxy-2-endo-2-(1-(2-methoxycarbonylethyl)-amino)propyl-bicyclo(2.2.1)heptan-1-yl)methanesulfonyl)-4-(2-methylphenyl)piperazine]			inhibition at 0.1 µM: 48%
Cc1ccccc1N1CCN(S(=O)(=O)CC23CCC(C=C2C(=O)O)C3(C)C)CC1 (stereo not shown) [Example 21, 1-((7,7-Dimethyl-2-carboxy-bicyclo(2.2.1)hept-2-en-1-yl)methanesulfonyl)-4-(2-methylphenyl)piperazine]	38		
Cc1ccccc1N1CCN(S(=O)(=O)CC23CCC(CC2=CCN)C3(C)C)CC1 (stereo not shown) [Example 16, 1-((7,7-dimethyl-2-(2-amino)ethylidine-bicyclo-(2.2.1)heptan-1-yl)methanesulfonyl)-4-(2-methyl-phenyl)piperazine]	64		
Two isomers of 1-((7,7-dimethyl-2-exo-hydroxy-2-endo-2-(1-(3-methoxycarbonyl)-2-pyrrolidinon-1-yl)propylbicyclo-(2.2.1)heptan-1-yl)methanesulfonyl)-4-(2-methylphenyl)piperazine [Example 26]		35	
Cc1ccccc1N1CCN(S(=O)(=O)C[C@]23CC[C@H](C[C@@H]2C(=O)NCCc2cnc[nH]2)C3(C)C)CC1 [Example 25, 1-((7,7-Dimethyl-2-endo-(4-imidazolyl)ethylamino-carbonyl-bicyclo-(2.2.1)heptan-1-yl)methanesulfonyl)-4-(2-methylphenyl)piperazine]			inhibition at 0.1 µM: 34%
Cc1ccccc1N1CCN(S(=O)(=O)CC23CCC(CC24CO4)C3(C)C)CC1 (stereo not shown) [Example 18, 1-((7,7-Dimethyl-2-spiro-epoxy-bicyclo(2.2.1)heptan-1-yl)methane-sulfonyl)-4-(2-methylphenyl)piperazine]	75		
1-((7,7-Dimethyl-2-exo-hydroxy-2-endo-2-(1-(4-pyridinyl)methylamino)-propyl-bicyclo(2.2.1)heptan-1-yl)methanesulfonyl)-4-(2-methylphenyl)-piperazine [Example 27]			inhibition at 100 nM (at 100 nM): 37% inhibition at 100 nM
